Results: patent US20220388964A1 (HiberCell, Inc., priority 2019, published 2022)
pIC50: −log10 of the molar value.

Biological target: GCN2 (Homo sapiens, UniProt Q9P2K8)
Assay: TR-FRET biochemical assay for inhibition of GCN2 (Example 106, for Example 1-4BB)
Conditions: Table 8

Sequence of GCN2 (Q9P2K8 whole entry): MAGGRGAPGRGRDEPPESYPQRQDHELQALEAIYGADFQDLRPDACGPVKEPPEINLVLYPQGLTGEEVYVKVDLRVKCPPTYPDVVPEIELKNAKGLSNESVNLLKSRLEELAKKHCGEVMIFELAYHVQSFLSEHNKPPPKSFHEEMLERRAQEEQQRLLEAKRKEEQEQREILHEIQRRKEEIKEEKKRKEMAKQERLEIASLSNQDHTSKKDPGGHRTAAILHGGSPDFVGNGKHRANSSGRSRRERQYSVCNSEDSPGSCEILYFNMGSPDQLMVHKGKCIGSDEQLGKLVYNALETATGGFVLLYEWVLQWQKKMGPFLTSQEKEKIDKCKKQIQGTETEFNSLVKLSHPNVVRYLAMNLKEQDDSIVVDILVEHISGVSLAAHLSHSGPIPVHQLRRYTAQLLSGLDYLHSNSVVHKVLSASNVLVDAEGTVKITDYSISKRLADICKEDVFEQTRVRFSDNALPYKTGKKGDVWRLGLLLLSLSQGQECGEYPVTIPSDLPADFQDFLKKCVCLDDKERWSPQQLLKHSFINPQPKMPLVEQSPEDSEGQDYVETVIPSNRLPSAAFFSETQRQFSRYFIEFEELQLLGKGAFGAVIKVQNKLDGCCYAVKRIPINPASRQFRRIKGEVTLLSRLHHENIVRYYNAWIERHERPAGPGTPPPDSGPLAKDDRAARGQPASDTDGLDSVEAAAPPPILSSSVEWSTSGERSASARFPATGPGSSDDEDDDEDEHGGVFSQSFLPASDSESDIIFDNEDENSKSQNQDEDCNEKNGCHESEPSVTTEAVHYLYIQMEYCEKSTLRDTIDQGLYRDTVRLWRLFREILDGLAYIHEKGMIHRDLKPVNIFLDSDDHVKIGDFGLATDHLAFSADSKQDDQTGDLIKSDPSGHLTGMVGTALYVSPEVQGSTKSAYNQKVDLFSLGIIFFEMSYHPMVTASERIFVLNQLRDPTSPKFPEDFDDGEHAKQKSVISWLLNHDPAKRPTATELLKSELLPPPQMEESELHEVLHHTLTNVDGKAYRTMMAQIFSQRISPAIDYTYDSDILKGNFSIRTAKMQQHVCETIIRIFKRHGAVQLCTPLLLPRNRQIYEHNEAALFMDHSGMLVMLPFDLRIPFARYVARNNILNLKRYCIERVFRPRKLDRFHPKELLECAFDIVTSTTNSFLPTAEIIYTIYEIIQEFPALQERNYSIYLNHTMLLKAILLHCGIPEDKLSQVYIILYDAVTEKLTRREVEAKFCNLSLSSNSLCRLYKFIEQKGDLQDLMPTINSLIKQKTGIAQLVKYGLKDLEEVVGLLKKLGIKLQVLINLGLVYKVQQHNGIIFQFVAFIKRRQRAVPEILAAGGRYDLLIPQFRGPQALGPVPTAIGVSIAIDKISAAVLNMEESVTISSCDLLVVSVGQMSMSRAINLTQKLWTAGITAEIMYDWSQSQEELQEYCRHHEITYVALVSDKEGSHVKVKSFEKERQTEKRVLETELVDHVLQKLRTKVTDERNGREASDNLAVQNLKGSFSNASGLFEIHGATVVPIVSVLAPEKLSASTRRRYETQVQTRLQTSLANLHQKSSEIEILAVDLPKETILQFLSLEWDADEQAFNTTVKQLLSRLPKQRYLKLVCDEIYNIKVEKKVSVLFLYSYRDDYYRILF

Row | pIC50 | SMILES
1 | > 6.30 | O=S(=O)(Nc1ccc(F)c(-c2ccc3c(-c4ncc[nH]4)n[nH]c3c2F)c1F)c1cccc(F)c1F [Example 2AG, N-(2,4-difluoro-3-(7-fluoro-3-(1H-imidazol-2-yl)-1H-indazol-6-yl)phenyl)-2,3-difluorobenzenesulfonamide]
2 | > 6.30 | COc1ncc(Cl)cc1S(=O)(=O)Nc1ncc(F)c(-c2ccc3c(-c4ncc[nH]4)n[nH]c3c2F)c1F [Example 6, 5-Chloro-N-(3,5-difluoro-4-(7-fluoro-3-(1H-imidazol-2-yl)-1H-indazol-6-yl)pyridin-2-yl)-2-methoxypyridine-3-sulfonamide]
3 | > 6.30 | COc1ncc(Cl)cc1S(=O)(=O)Nc1cccc(-c2ccc3c(-c4ncc[nH]4)n[nH]c3c2F)c1F [Example 2M, 5-chloro-N-(2-fluoro-3-(7-fluoro-3-(1H-imidazol-2-yl)-1H-indazol-6-yl)phenyl)-2-methoxy-pyridine-3-sulfonamide]
4 | > 6.30 | O=S(=O)(Nc1ccc(F)c(-c2ccc3c(-c4ncc[nH]4)n[nH]c3c2F)c1F)c1ccccc1Cl [Example 2BP, 2-chloro-N-(2,4-difluoro-3-(7-fluoro-3-(1H-imidazol-2-yl)-1H-indazol-6-yl)phenyl)-benzenesulfonamide]
5 | 5.60 to 6.30 | Cc1c(O)cccc1S(=O)(=O)Nc1ccc(F)c(-c2ccc3c(-c4ncc[nH]4)n[nH]c3c2F)c1F [Example 2AU, N-(2,4-difluoro-3-(7-fluoro-3-(1H-imidazol-2-yl)-1H-indazol-6-yl)phenyl)-3-hydroxy-2-methylbenzene-sulfonamide]
6 | 5.60 to 6.30 | COc1ncc(Cl)cc1S(=O)(=O)Nc1ccc(F)c(-c2ccc3c(C(=O)N(C)C)n[nH]c3c2F)c1F [Example 2AS, 6-(3-((5-chloro-2-methoxy-pyridine)-3-sulfonamido)-2,6-difluorophenyl)-7-fluoro-N,N-dimethyl-1H-indazole-3-carboxamide]
7 | 5.60 to 6.30 | COc1ncc(Cl)cc1S(=O)(=O)Nc1ccc(F)c(-c2ccc3c(-c4ncc[nH]4)n[nH]c3c2)n1 [Example 2CA]
8 | 5.00 to 5.60 | CCn1cc(S(=O)(=O)Nc2ccc(F)c(-c3ccc4c(-c5ncc[nH]5)n[nH]c4c3F)c2F)cn1 [Example 2D, N-(2,4-difluoro-3-(7-fluoro-3-(1H-imidazol-2-yl)-1H-indazol-6-yl)phenyl)-1-ethyl-1H-pyrazole-4-sulfonamide]
9 | > 6.30 | COc1cccc(S(=O)(=O)Nc2ccc(F)c(-c3ccc4c(-c5ncc[nH]5)n[nH]c4c3F)c2F)c1F [Example 2AP, N-(2,4-difluoro-3-(7-fluoro-3-(1H-imidazol-2-yl)-1H-indazol-6-yl)phenyl)-2-fluoro-3-methoxybenzene-sulfonamide]
10 | 5.60 to 6.30 | O=S(=O)(Nc1ccc(F)c(-c2ccc3c(-c4ncc[nH]4)n[nH]c3c2F)c1F)c1cccc(Cl)c1 [Example 2CN, 3-chloro-N-(2,4-difluoro-3-(7-fluoro-3-(1H-imidazol-2-yl)-1H-indazol-6-yl)phenyl)ben-zenesulfonamide]
11 | 5.00 to 5.60 | Cn1cccc(S(=O)(=O)Nc2ccc(F)c(-c3ccc4c(-c5ncc[nH]5)n[nH]c4c3F)c2F)c1=O [Example 2AJ, N-(2,4-difluoro-3-(7-fluoro-3-(1H-imidazol-2-yl)-1H-indazol-6-yl)phenyl)-1-methyl-2-oxo-1,2-dihydro-pyridine-3-sulfonamide]

Same assay, conditions: Table 9

Row | pIC50 | SMILES
12 | 5.00 to 5.60 | O=S(=O)(Nc1ccc(F)c(-c2ccc3c(-c4ccccc4)n[nH]c3c2)c1F)c1cc(F)ccc1F [Example 10, N-(2,4-Difluoro-3-(3-phenyl-1H-indazol-6-yl)phenyl)-2,5-difluorobenzenesulfonamide]
13 | > 6.30 | COc1nc(C)c(C#N)cc1S(=O)(=O)Nc1ccc(F)c(-c2ccc3c(-c4ncc[nH]4)n[nH]c3c2F)c1F [Example 3DK, 5-cyano-N-(2,4-difluoro-3-(7-fluoro-3-(1H-imidazol-2-yl)-1H-indazol-6-yl)phenyl)-2-methoxy-6-methylpyridine-3-sulfonamide]
14 | > 6.30 | COc1ncc(F)cc1S(=O)(=O)Nc1cccc(-c2ccc3c(C(=O)NCCCO)n[nH]c3c2F)c1F [Example 26, 7-Fluoro-6-(2-fluoro-3-((5-fluoro-2-methoxypyridine)-3-sulfonamido)phenyl)-N-(3-hydroxypropyl)-1H-indazole-3-carboxamide]
15 | > 6.30 | NC(=O)c1n[nH]c2c(F)c(-c3c(F)ccc(NS(=O)(=O)c4cc(F)cc(CO)c4Cl)c3F)ccc12 [Example 4AB]
16 | 5.60 to 6.30 | Cc1ccc(S(=O)(=O)Nc2ccc(F)c(-c3ccc4c(C(=O)NCCCN(C)C)n[nH]c4c3F)c2F)c(C)n1 [Example 3CO, N-(3-(dimethylamino)propyl)-6-(3-((2,6-dimethylpyridine)-3-sulfonamido)-2,6-difluorophenyl)-7-fluoro-1H-indazole-3-carboxamide]
17 | 5.00 to 5.60 | COc1ncc(Cl)cc1S(=O)(=O)Nc1ccc(F)c(-c2ccc3c(C(=O)Nc4cc(F)cc(Cl)c4)n[nH]c3c2F)c1F [Example 3DA, 6-(3-((5-chloro-2-methoxy-pyridine)-3-sulfonamido)-2,6-difluorophenyl)-N-(3-chloro-5-fluorophenyl)-7-fluoro-1H-indazole-3-carboxamide]
18 | 5.00 to 5.60 | COc1ncc(F)cc1S(=O)(=O)Nc1ccnc(-c2ccc3c(-c4ncc[nH]4)n[nH]c3c2F)c1C#N [Example 29, N-(3-Cyano-2-(7-fluoro-3-(1H-imidazol-2-yl)-1H-indazol-6-yl)pyridin-4-yl)-5-fluoro-2-methoxypyridine-3-sulfonamide]
19 | > 6.30 | COc1ncc(F)cc1S(=O)(=O)Nc1ccc(F)c(-c2ccc3c(-c4nnc(C)[nH]4)n[nH]c3c2F)c1F [Example 3CK, N-(2,4-difluoro-3-(7-fluoro-3-(5-methyl-4H-1,2,4-triazol-3-yl)-1H-indazol-6-yl)phenyl)-5-fluoro-2-methoxypyridine-3-sulfonamide]
20 | > 6.30 | Cc1nc(C)c(S(=O)(=O)Nc2cc(F)cc(-c3ccc4c(-c5ncc[nH]5)n[nH]c4c3F)c2F)s1 [Example 3BY, N-(2,5-difluoro-3-(7-fluoro-3-(1H-imidazol-2-yl)-1H-indazol-6-yl)phenyl)-2,4-dimethylthiazole-5-sulfonamide]
21 | > 6.30 | O=S(=O)(Nc1ccc(F)c(-c2ccc3c(-c4ncc[nH]4)n[nH]c3c2F)c1F)c1cccn2ccnc12 [Example 3O, N-(2,4-difIuoro-3-(7-fluoro-3-(1H-imidazol-2-yl)-1H-indazol-6-yl)phenyl)-imidazo[1,2-a]pyridine-8-sulfonamide]
22 | > 6.30 | Cc1ncc(F)cc1S(=O)(=O)Nc1ccc(F)c(-c2ccc3c(C(=O)Nc4cnn(C)c4)n[nH]c3c2F)c1F [Example 3DR, 6-(2,6-difluoro-3-((5-fluoro-2-methylpyridine)-3-sulfon-amido)phenyl)-7-fluoro-N-(1-methyl-1H-pyrazol-4-yl)-1H-indazole-3-carboxamide]
23 | > 6.30 | O=C1CCc2c1cc(F)cc2S(=O)(=O)Nc1ccc(F)c(-c2ccc3c(C(=O)NCCCO)n[nH]c3c2F)c1F [Example 4U]
24 | < 5.00 | COc1ncc(CO)cc1S(=O)(=O)Nc1ccc(F)c(-c2ccc3c(C(=O)NCCCN(C)C)n[nH]c3c2F)c1F [Example 3DB, 6-(2,6-difluoro-3-((5-(hydroxymethyl)-2-meth-oxypyridine)-3-sulfonamido)-phenyl)-N-(3-(dimethyl-amino)propyl)-7-fluoro-1H-indazole-3-carboxamide]
25 | > 6.30 | Cc1ncc(F)cc1S(=O)(=O)Nc1ccc(F)c(-c2ccc3c(C(=O)Nc4cnoc4)n[nH]c3c2F)c1F [Example 3DQ, 6-(2,6-difluoro-3-((5-fluoro-2-methylpyridine)-3-sulfonamido)phenyl)-7-fluoro-N-(isoxazol-4-yl)-1H-indazole-3-carboxamide]
26 | > 6.30 | Cc1c(CO)cc(F)cc1S(=O)(=O)Nc1ccc(F)c(-c2ccc3c(C(=O)Nc4cn[nH]c4)n[nH]c3c2F)c1F [Example 4K]
27 | 5.60 to 6.30 | COc1ncc(Cl)cc1S(=O)(=O)Nc1ccc(F)c(-c2ccc3c(C(=O)Nc4cnn(C(F)F)c4)n[nH]c3c2F)c1F [Example 3CR, 6-(3-((5-chloro-2-methoxy-pyridine)-3-sulfonamido)-2,6-difluorophenyl)-N-(1-(difluoromethyl)-1H pyrazol-4-yl)-7-fluoro-1H-indazole-3-carboxamide]
28 | 5.60 to 6.30 | COc1ncc(F)cc1S(=O)(=O)Nc1nccc(-c2ccc3c(-c4ncc[nH]4)n[nH]c3c2F)c1C#N [Example 31]

Second part, the compound before the results:

Row | SMILES | pIC50
29 | COc1ncc(F)cc1S(=O)(=O)Nc1cccc(-c2ccc3c(C(=O)NCC[C@H](O)CO)n[nH]c3c2F)c1F [Example 3BG, 6-(2-fluoro-3-((5-fluoro-2-methoxypyridine)-3-sulfonamido)phenyl)-N-((S)-3,4-dihydroxybutyl)-7-fluoro-1H-indazole-3-carboxamide] | > 6.30
30 | COc1ncc(F)cc1S(=O)(=O)Nc1ccc(F)c(-c2ccc3c(C(=O)NCC#N)n[nH]c3c2F)c1F [Example 3AW, N-(cyanomethyl)-6-(2,6-difluoro-3-((5-fluoro-2-methoxypyridine)-3-sulfon-amido)phenyl)-7-fluoro-1H-indazole-3-carboxamide] | > 6.30
31 | COc1ncc(F)cc1S(=O)(=O)Nc1ccc(F)c(-c2ccc3c(C(=O)NCC[C@@H](O)CO)n[nH]c3c2F)c1F [Example 3BF, 6-(2,6-difluoro-3-((5-fluoro-2-methoxypyridine)-3-sulfonamido)phenyl)-N-((R)-3,4-dihydroxybutyl)-7-fluoro-1H-indazole-3-carboxamide] | > 6.30
32 | COc1ncc(F)cc1S(=O)(=O)Nc1ccc(F)c(-c2ccc3c(C(=O)N[C@@H]4CCN(C)C4)n[nH]c3c2F)c1F [Example 3AB, 6-(3-((5-fluoro-2-methoxy-pyridine)-3-sulfonamido)-2,6-difluorophenyl)-7-fluoro-N-((R)-1-methylpyrrolidin-3-yl)-1H-indazole-3-carboxamide] | > 6.30
33 | COc1ncc(F)cc1S(=O)(=O)Nc1ccc(F)c(-c2ccc3c(C(=O)NC[C@H](O)CO)n[nH]c3c2F)c1F [Example 3AI, 6-(2,6-difluoro-3-((5-fluoro-2-methoxypyridine)-3-sulfonamido)phenyl)-N-((R)-2,3-dihydroxypropyl)-7-fluoro-1H-indazole-3-carboxamide] | > 6.30
